Measured values from patent US8344153B2, “Inhibitors of phosphatidylinositol 3-kinase” (Vertex Pharmaceuticals Incorporated, priority 2009, dated 2013).

Target: PI3K-γ (Homo sapiens, UniProt P48736)
Test: PI3K Inhibition Assay (33P-ATP, PI(4,5)P2 substrate, filter plate scintillation counting)
Assay type: biochemical
Conditions: competitive tight binding Ki fit; 3 μM ATP, 30 μM PI(4,5)P2, 2 nM final enzyme, 30 min at 25° C.; read-out: Ki for the inhibition of PI3Ky
Procedure: One test well also contained 1.5 μL of DMSO with no compound. […] To initiate the reaction, 50 μL of ATP Mix [20 mM MgCl2, 6 μM ATP (100 μCi/μmole ^33P-ATP)] was added each well, followed by incubating the wells for 30 min. at 25° C. Final concentrations in each well were 50 mM HEPES 7.5, 10 mM MgCl2, 25 mM NaCl, 5 mM DTT, 0.1 mg/mL BSA, 30 μM PI(4,5)P2, 3 μM ATP, and the PI3K isoform of interest (see Table 3). Final compound concentrations in each well ranged from 10 μM to 1 nM.
After incubation, the reactions in each well were quenched by addition of 50 μL of stop solution [30% TCA/Water, 10 mM ATP]. […] 50 μL of scintillation fluid was added to each well and the plate read on a Perkin-Elmer TopCount™ NXT liquid scintillation counter to obtain ^33P-counts representing inhibition values.

PI3K-γ, sequence (P48736 whole entry, species assumed): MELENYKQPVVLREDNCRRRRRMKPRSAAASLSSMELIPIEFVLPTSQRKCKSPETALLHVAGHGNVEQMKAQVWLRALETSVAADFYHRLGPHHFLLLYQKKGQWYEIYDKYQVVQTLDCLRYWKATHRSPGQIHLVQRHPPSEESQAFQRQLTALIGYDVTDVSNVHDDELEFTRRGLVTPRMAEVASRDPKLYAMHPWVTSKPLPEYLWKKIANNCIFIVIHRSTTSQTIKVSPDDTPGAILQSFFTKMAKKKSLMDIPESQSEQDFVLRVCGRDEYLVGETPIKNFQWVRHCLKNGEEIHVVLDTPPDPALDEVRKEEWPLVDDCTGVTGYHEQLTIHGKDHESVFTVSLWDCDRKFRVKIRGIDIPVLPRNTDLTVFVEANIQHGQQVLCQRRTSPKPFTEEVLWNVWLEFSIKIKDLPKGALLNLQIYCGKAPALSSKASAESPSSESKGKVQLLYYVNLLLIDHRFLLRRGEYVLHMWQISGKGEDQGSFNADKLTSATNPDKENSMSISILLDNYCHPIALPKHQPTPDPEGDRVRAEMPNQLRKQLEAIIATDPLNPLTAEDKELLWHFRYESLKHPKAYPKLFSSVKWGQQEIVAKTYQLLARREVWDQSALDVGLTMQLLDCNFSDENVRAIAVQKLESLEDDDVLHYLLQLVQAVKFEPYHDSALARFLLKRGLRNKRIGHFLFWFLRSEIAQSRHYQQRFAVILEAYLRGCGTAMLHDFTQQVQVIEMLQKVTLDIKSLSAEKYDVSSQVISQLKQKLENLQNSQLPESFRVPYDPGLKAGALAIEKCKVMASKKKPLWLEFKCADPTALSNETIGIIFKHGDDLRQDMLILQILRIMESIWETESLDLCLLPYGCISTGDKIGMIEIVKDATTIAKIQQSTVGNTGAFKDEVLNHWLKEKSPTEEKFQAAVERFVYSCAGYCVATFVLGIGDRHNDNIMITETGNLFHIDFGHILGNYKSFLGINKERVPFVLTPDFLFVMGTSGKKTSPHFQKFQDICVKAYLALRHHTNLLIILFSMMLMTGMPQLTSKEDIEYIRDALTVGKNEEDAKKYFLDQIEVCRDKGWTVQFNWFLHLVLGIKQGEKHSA

In the case of `CCOCCNC(=O)Nc1nc(C)c(C#Cc2ccncc2)s1` [Compound 26], the Ki is reported as < 0.05 µM.
